Assay results published in ChEMBL document CHEMBL1201862, “PubChem BioAssay data set” (2004).
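Briefly, cells in 96-well plates were exposed to five compound concentrations for 48 h, and endpoints were estimated by linear interpolation. At the GI50, growth is halved.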 Active and inactive are the calls of the source. Cut-off read from the data, not from the text of the source: active = GI50 up to about 1.1 µM and inactive = higher.

Key:
Assay in all cases: growth of human tumour cells (NCI), 48 h
A498 = system: A498
Hs-578T = system: Hs-578T
MDA-N = system: MDA-N
DU-145 = system: DU-145
DLD-1 = system: DLD-1
DMS-114 = system: DMS-114
KM-20L2 = system: KM-20L2
M19-MEL = system: M19-MEL
RXF 631 = system: RXF 631

Compound | GI50 (A498) | GI50 (Hs-578T) | GI50 (MDA-N) | GI50 (DU-145) | GI50 (DLD-1) | GI50 (DMS-114) | GI50 (KM-20L2) | GI50 (M19-MEL) | GI50 (RXF 631)
COc1cc2c(cc1OC)C13CCN4CC5=CCOC(CC(=O)O)C(C5CC41)C3N2 (stereo not drawn) | > 100 µM (inactive) | > 100 µM (inactive) | > 100 µM (inactive) | – | – | – | – | – | –
COc1ccc(C(=C2C=CC=C2)c2ccc(OC)cc2)cc1 | – | 33.6 µM (inactive) | 37 µM (inactive) | 40.7 µM (inactive) | – | – | – | – | –
C#CCNC(=O)CCC(N)C(=O)O (stereo not drawn) | > 100 µM (inactive) | – | – | – | > 100 µM (inactive) | > 100 µM (inactive) | > 100 µM (inactive) | > 100 µM (inactive) | –
COc1c2c(c3ccccc3c1O)C1C=CC2C1 (stereo not drawn) | – | – | – | – | 13.3 µM (inactive) | 4.95 µM (inactive) | 22.3 µM (inactive) | 2.32 µM (inactive) | –
COC(=O)C1=C(C)N2CCSC2(C)C(C(=O)OC)C1c1cccc(Cl)c1 (stereo not drawn) | – | – | – | – | – | 19.8 µM (inactive) | 17.5 µM (inactive) | 16 µM (inactive) | –
COc1ccc(-c2c3c(nc4[nH]c(=S)[nH]c(=S)c24)CCCC3)cc1OC | – | 13.3 µM (inactive) | 34.3 µM (inactive) | 35.8 µM (inactive) | – | – | – | – | –
Oc1cc2cc(O)nc(O)c2c(O)n1 | > 100 µM (inactive) | – | – | – | > 100 µM (inactive) | > 100 µM (inactive) | > 100 µM (inactive) | > 100 µM (inactive) | > 100 µM (inactive)
CC(=N/NC(=S)Nc1c(C)n(C)n(-c2ccccc2)c1=O)/C(C)=N\NC(=S)Nc1c(C)n(C)n(-c2ccccc2)c1=O | > 100 µM (inactive) | > 100 µM (inactive) | – | > 100 µM (inactive) | – | – | – | – | –
CCOC(=O)C1(C(C)=O)OC(=O)c2cnccc21 (stereo not drawn) | > 100 µM (inactive) | > 100 µM (inactive) | > 100 µM (inactive) | > 100 µM (inactive) | – | – | – | – | –
CN(C)/N=C(/CC(O)(C(F)(F)F)C(F)(F)F)c1ccc([N+](=O)[O-])cc1 | > 100 µM (inactive) | > 100 µM (inactive) | > 100 µM (inactive) | > 100 µM (inactive) | – | – | – | – | –
COP(=O)(OC)C(Cc1c[nH]c2ccccc12)NC(=O)OCc1ccccc1 (stereo not drawn) | > 100 µM (inactive) | > 100 µM (inactive) | > 100 µM (inactive) | > 100 µM (inactive) | – | – | – | – | –
BrC(/C=N/Nc1nnc(-c2ccccc2)c(-c2ccccc2)n1)C(Br)c1ccccc1 (stereo not drawn) | 40.2 µM (inactive) | – | – | – | 23.8 µM (inactive) | 23.7 µM (inactive) | 39.8 µM (inactive) | 36.1 µM (inactive) | 51.4 µM (inactive)
BrCC[N+]12CC[N+](CCBr)(CC1)C2 | > 100 µM (inactive) | > 100 µM (inactive) | > 100 µM (inactive) | > 100 µM (inactive) | – | – | – | – | –
C[C@H](N)C(=O)N[C@@H]1[C@H]2C(=C(O)C[C@@H](O)[C@@H]2O)C(=O)O[C@@H]1C | > 100 µM (inactive) | – | – | – | > 100 µM (inactive) | > 100 µM (inactive) | > 100 µM (inactive) | > 100 µM (inactive) | –
COc1cc(S(=O)(=O)Nc2ccc(-c3csc(/N=C\c4cccc(Oc5ccccc5)c4)n3)cc2)ccc1Cl | – | 60.4 µM (inactive) | – | 25.5 µM (inactive) | – | – | – | – | –
C=CC(OC(=O)C(C)C)c1ccc(OC(=O)C(C)C)cc1 (stereo not drawn) | 17.6 µM (inactive) | 35.7 µM (inactive) | 12.5 µM (inactive) | 32.9 µM (inactive) | – | – | – | – | –
CCS/C(=N\c1ccccc1)SC | – | – | – | – | > 100 µM (inactive) | > 100 µM (inactive) | > 100 µM (inactive) | > 100 µM (inactive) | > 100 µM (inactive)
CN(C)c1nc(N(C)C)sc(=O)n1 | > 100 µM (inactive) | – | – | – | > 100 µM (inactive) | > 100 µM (inactive) | > 100 µM (inactive) | > 100 µM (inactive) | –
c1ccc(P2c3ccccc3Nc3ccccc32)cc1 | 27.1 µM (inactive) | – | 91 µM (inactive) | 78 µM (inactive) | – | – | – | – | –
COC1=C(C)C(=O)C2=C(C1=O)[C@@H]1[C@@H]3Cc4c(OC(=O)CO)c(C)c(OC)c(O)c4[C@H](CNC(=O)C(C)=O)N3[C@@H](C#N)[C@H](C2)N1C | 0.0959 µM (active) | – | – | – | 0.0115 µM (active) | < 0.01 µM (active) | 0.0466 µM (active) | < 0.0171 µM (active) | –

Compound | GI50 (A498) | GI50 (Hs-578T) | GI50 (MDA-N) | GI50 (DU-145) | GI50 (DLD-1) | GI50 (DMS-114) | GI50 (KM-20L2) | GI50 (M19-MEL) | GI50 (RXF 631)
COc1ccc(C2=NN(C(=O)c3ccc(Cl)cc3)C(O)(c3cc(F)c(Cl)cc3Cl)C2)cc1 (stereo not drawn) | 71.6 µM (inactive) | > 100 µM (inactive) | 22.4 µM (inactive) | > 100 µM (inactive) | – | – | – | – | –
COc1cc(CNc2nc3c(NC(C)=O)cc(C(F)(F)F)cc3nc2-c2ccccc2)cc(OC)c1OC | – | – | – | – | > 100 µM (inactive) | > 100 µM (inactive) | > 100 µM (inactive) | > 100 µM (inactive) | –
Cc1cc(O)nc(NN2C(Cl)C(=O)C2c2ccco2)n1 (stereo not drawn) | – | – | – | – | – | 34.4 µM (inactive) | 39.4 µM (inactive) | 39.5 µM (inactive) | –
Cc1ccc(C(=O)N/N=C(\N=N\c2cccc([N+](=O)[O-])c2)c2ccc(N(C)C)cc2)cc1 | – | > 100 µM (inactive) | 20.7 µM (inactive) | 16.6 µM (inactive) | – | – | – | – | –
CC[N+]1(C)CCC(O)(c2ccccc2)C(C(=O)c2ccccc2)C1 (stereo not drawn) | 16.1 µM (inactive) | 24 µM (inactive) | – | 22.1 µM (inactive) | 7.93 µM (inactive) | 20.2 µM (inactive) | 19.5 µM (inactive) | 18.4 µM (inactive) | –
O=C(O)c1c[nH]c2c(=O)[nH]cnc12 | – | – | – | – | > 100 µM (inactive) | > 100 µM (inactive) | – | > 100 µM (inactive) | > 100 µM (inactive)
O=C(Nc1c(Cl)cc([N+](=O)[O-])cc1Cl)/C(=N\Nc1cccc(Cl)c1)c1c(O)c2ccccc2oc1=O | 21.2 µM (inactive) | – | – | – | 42.9 µM (inactive) | 52.7 µM (inactive) | > 100 µM (inactive) | > 100 µM (inactive) | 53.6 µM (inactive)
CCOC(=O)C1=C(C)N(c2ccc(Cl)cc2)C2(O)C=CC(Nc3ccc(Cl)cc3)=C3C(=O)N(c4ccccc4)C(=O)C312 (stereo not drawn) | 1.83 µM (inactive) | 5.51 µM (inactive) | – | 4.27 µM (inactive) | – | – | – | – | –
CC1=Nc2nc(Cl)cn2C(=O)C1(Cl)Cl | > 10 µM (inactive) | > 10 µM (inactive) | > 10 µM (inactive) | > 10 µM (inactive) | – | – | – | – | –
C/C(N)=N/OCc1nc(C)no1 | – | > 100 µM (inactive) | > 100 µM (inactive) | > 100 µM (inactive) | – | – | – | – | –
COc1cccc2ccc(C(=O)c3ccccc3)nc12 | – | – | – | – | > 100 µM (inactive) | – | > 100 µM (inactive) | – | –
COC(=O)N/N=C/c1oc(-c2ccccc2)c(-c2ccccc2)c1[N+](=O)[O-] | – | – | – | – | > 100 µM (inactive) | > 100 µM (inactive) | > 100 µM (inactive) | > 100 µM (inactive) | > 100 µM (inactive)
CC12CCC(C(=O)OC1=O)C(C)(C)O2 (stereo not drawn) | – | > 100 µM (inactive) | > 100 µM (inactive) | > 100 µM (inactive) | – | – | – | – | –
CC1CC2C3CCC4=CC(=O)C=CC4(C)C3(F)C(O)CC2(C)C1(O)C(=O)COP(=O)(O)O (stereo not drawn) | > 100 µM (inactive) | > 100 µM (inactive) | 8.18 µM (inactive) | > 100 µM (inactive) | > 100 µM (inactive) | – | > 100 µM (inactive) | > 100 µM (inactive) | –
CC(=O)NC(CCC(=O)C=[N+]=[N-])C(=O)O (stereo not drawn) | > 100 µM (inactive) | > 100 µM (inactive) | > 100 µM (inactive) | > 100 µM (inactive) | – | – | – | – | –
COC1=CC(C2c3cc4c(cc3[C@@H](Nc3ccc([N+](=O)[O-])cc3)C3COC(=O)[C@H]23)OCO4)=CC(=O)C1=O (stereo partly drawn) | 1.84 µM (inactive) | – | – | – | 14 µM (inactive) | 2.57 µM (inactive) | 9.1 µM (inactive) | 6.4 µM (inactive) | 2.29 µM (inactive)
Oc1[nH]c(Nc2cccc(Br)c2)nc2ncnc1-2 | – | 55.3 µM (inactive) | > 100 µM (inactive) | 73.3 µM (inactive) | – | – | – | – | –
Nc1ccn(C2OC(CO)C(O)C2O)c(=O)c1 (stereo not drawn) | – | – | – | – | 513 µM (inactive) | – | 566 µM (inactive) | – | –
CC1=C(CO)C(=O)O[C@@H]([C@@H](C)[C@H]2CC[C@H]3[C@@H]4C[C@H]5O[C@]56[C@@H](O)C=CC(=O)[C@]6(C)[C@H]4CC[C@]23C)C1 [WITHAFERIN A] | – | – | – | – | 0.303 µM (active) | 0.478 µM (active) | 0.392 µM (active) | 1.5 µM (inactive) | –
